Data from the NIST ThermoML archive (doi:10.1021/je0601208).

Experiments:
[1] = refractive index (Na D-line) (dimensionless); xn = mol fraction of the nth substance listed; details: 100.5 kPa, Liquid, Standard Abbe refractometry
[2] = xn = mol fraction of the nth substance listed

CCCC(=O)OCCC(C)C [3-methylbutyl butanoate] + CCO
Details	refractive index, 288.15 K	refractive index, 298.15 K	refractive index, 308.15 K	refractive index, 318.15 K	surface tension liquid-gas, 288.15 K [mN/m]	surface tension liquid-gas, 298.15 K [mN/m]	surface tension liquid-gas, 308.15 K [mN/m]	surface tension liquid-gas, 318.15 K [mN/m]
[1], x1 = 0.05	1.3703	1.36624	1.36195	1.3578	–	–	–	–
[1], x1 = 0.1	1.37602	1.37182	1.36747	1.36327	–	–	–	–
[1], x1 = 0.15	1.3808	1.37656	1.37218	1.36792	–	–	–	–
[1], x1 = 0.2	1.38488	1.38059	1.3762	1.3719	–	–	–	–
[1], x1 = 0.25	1.38839	1.38406	1.37967	1.37533	–	–	–	–
[1], x1 = 0.3	1.39145	1.38709	1.38268	1.37832	–	–	–	–
[1], x1 = 0.35	1.39415	1.38977	1.38535	1.38096	–	–	–	–
[1], x1 = 0.4	1.39656	1.39216	1.38773	1.38332	–	–	–	–
[1], x1 = 0.45	1.39871	1.39431	1.38987	1.38544	–	–	–	–
[1], x1 = 0.5	1.40065	1.39624	1.3918	1.38736	–	–	–	–
[1], x1 = 0.55	1.4024	1.39798	1.39354	1.3891	–	–	–	–
[1], x1 = 0.6	1.40399	1.39956	1.39513	1.39067	–	–	–	–
[1], x1 = 0.65	1.40543	1.401	1.39656	1.3921	–	–	–	–
[1], x1 = 0.7	1.40673	1.4023	1.39786	1.3934	–	–	–	–
[1], x1 = 0.75	1.40793	1.40349	1.39905	1.39459	–	–	–	–
[1], x1 = 0.8	1.40902	1.40458	1.40015	1.39569	–	–	–	–
[1], x1 = 0.85	1.41003	1.40559	1.40116	1.3967	–	–	–	–
[1], x1 = 0.9	1.41096	1.40652	1.4021	1.39763	–	–	–	–
[1], x1 = 0.95	1.41181	1.40737	1.40296	1.39849	–	–	–	–
[1], x1 = 1	1.41259	1.40815	1.40374	1.39927	–	–	–	–
[2], x1 = 0.05	–	–	–	–	23.3	22.6	21.8	20.9
[2], x1 = 0.1	–	–	–	–	23.6	22.8	22	21.1
[2], x1 = 0.15	–	–	–	–	23.8	23	22.2	21.3
[2], x1 = 0.2	–	–	–	–	24	23.1	22.4	21.5
[2], x1 = 0.25	–	–	–	–	24.1	23.3	22.5	21.6
[2], x1 = 0.3	–	–	–	–	24.3	23.4	22.6	21.7
[2], x1 = 0.35	–	–	–	–	24.4	23.5	22.7	21.8
[2], x1 = 0.4	–	–	–	–	24.5	23.6	22.8	21.9
[2], x1 = 0.45	–	–	–	–	24.6	23.7	22.9	22
[2], x1 = 0.5	–	–	–	–	24.7	23.8	23	22.1
[2], x1 = 0.55	–	–	–	–	24.8	23.9	23.1	22.2
[2], x1 = 0.6	–	–	–	–	24.9	23.9	23.2	22.3
[2], x1 = 0.65	–	–	–	–	25	24	23.3	22.4
[2], x1 = 0.7	–	–	–	–	25.1	24.1	23.4	22.5
[2], x1 = 0.75	–	–	–	–	25.2	24.2	23.5	22.6
[2], x1 = 0.8	–	–	–	–	25.3	24.3	23.6	22.7
[2], x1 = 0.85	–	–	–	–	25.4	24.4	23.7	22.8
[2], x1 = 0.9	–	–	–	–	25.5	24.5	23.8	22.9
[2], x1 = 0.95	–	–	–	–	25.6	24.6	23.9	23
[2], x1 = 1	–	–	–	–	25.7	24.7	24	23.1

CCOC(=O)c1ccccc1 [ethyl benzoate] + CCO
Details	refractive index, 288.15 K	refractive index, 298.15 K	refractive index, 308.15 K	refractive index, 318.15 K	surface tension liquid-gas, 288.15 K [mN/m]	surface tension liquid-gas, 298.15 K [mN/m]	surface tension liquid-gas, 308.15 K [mN/m]	surface tension liquid-gas, 318.15 K [mN/m]
[1], x1 = 0.05	1.38111	1.37682	1.37237	1.36815	–	–	–	–
[1], x1 = 0.1	1.39597	1.39165	1.38717	1.38279	–	–	–	–
[1], x1 = 0.15	1.40895	1.40452	1.39997	1.39551	–	–	–	–
[1], x1 = 0.2	1.42035	1.41593	1.41131	1.40679	–	–	–	–
[1], x1 = 0.25	1.43037	1.42598	1.42135	1.41678	–	–	–	–
[1], x1 = 0.3	1.43936	1.43498	1.43033	1.42576	–	–	–	–
[1], x1 = 0.35	1.44743	1.44303	1.4384	1.43378	–	–	–	–
[1], x1 = 0.4	1.45479	1.45038	1.44571	1.44105	–	–	–	–
[1], x1 = 0.45	1.46145	1.45702	1.45236	1.44765	–	–	–	–
[1], x1 = 0.5	1.4675	1.46309	1.45841	1.45369	–	–	–	–
[1], x1 = 0.55	1.47305	1.46865	1.46393	1.45918	–	–	–	–
[1], x1 = 0.6	1.47816	1.47372	1.46901	1.46424	–	–	–	–
[1], x1 = 0.65	1.48283	1.4784	1.47368	1.4689	–	–	–	–
[1], x1 = 0.7	1.48715	1.48273	1.47801	1.47321	–	–	–	–
[1], x1 = 0.75	1.49115	1.48675	1.48203	1.47724	–	–	–	–
[1], x1 = 0.8	1.49488	1.49047	1.48578	1.48098	–	–	–	–
[1], x1 = 0.85	1.4984	1.49401	1.48929	1.48449	–	–	–	–
[1], x1 = 0.9	1.5017	1.49731	1.49257	1.48776	–	–	–	–
[1], x1 = 0.95	1.50477	1.50037	1.49565	1.49086	–	–	–	–
[1], x1 = 1	1.5076	1.50328	1.49863	1.49391	–	–	–	–
[2], x1 = 0.05	–	–	–	–	23.9	23.1	22.2	21.3
[2], x1 = 0.1	–	–	–	–	24.7	23.9	23	22.1
[2], x1 = 0.15	–	–	–	–	25.5	24.6	23.7	22.8
[2], x1 = 0.2	–	–	–	–	26.2	25.3	24.4	23.5
[2], x1 = 0.25	–	–	–	–	26.9	26	25	24.1
[2], x1 = 0.3	–	–	–	–	27.5	26.6	25.6	24.7
[2], x1 = 0.35	–	–	–	–	28.1	27.2	26.1	25.3
[2], x1 = 0.4	–	–	–	–	28.7	27.7	26.7	25.8
[2], x1 = 0.45	–	–	–	–	29.2	28.3	27.2	26.3
[2], x1 = 0.5	–	–	–	–	29.7	28.7	27.7	26.8
[2], x1 = 0.55	–	–	–	–	30.2	29.2	28.1	27.3
[2], x1 = 0.6	–	–	–	–	30.7	29.7	28.6	27.8
[2], x1 = 0.65	–	–	–	–	31.2	30.2	29.1	28.3
[2], x1 = 0.7	–	–	–	–	31.8	30.8	29.6	28.8
[2], x1 = 0.75	–	–	–	–	32.3	31.3	30.1	29.3
[2], x1 = 0.8	–	–	–	–	32.9	31.9	30.6	29.8
[2], x1 = 0.85	–	–	–	–	33.6	32.5	31.2	30.4
[2], x1 = 0.9	–	–	–	–	34.3	33.2	31.9	31
[2], x1 = 0.95	–	–	–	–	35	33.9	32.6	31.8
[2], x1 = 1	–	–	–	–	35.7	34.6	33.3	32.5
